# Data taken from article PMC10819888, “Benzimidazole-Based Derivatives as Apoptotic Antiproliferative Agents: Design, Synthesis, Docking, and Mechanistic Studies” (Molecules, 2024).
# Legend:
# Assay type in all cases: cell-based, human
# HCC-2998 = experiment: NCI-60 five-dose assay; details: HCC-2998 (Colon Cancer), 48 h; for GI50 / CC50: Homo sapiens; for GI50: read-out: GI50 Conc. per Cell Line; for CC50: read-out: LC50 (the source's name)
# Prostate Cancer subpanel = experiment: NCI-60 five-dose assay, subpanel; details: for GI50: Homo sapiens, Prostate Cancer, average sensitivity of all subpanel cell lines, read-out: GI50 Subpanel MID b; for GI50 Selectivity Ratio (MID a/MID b): Prostate Cancer subpanel
# SNB-19 = experiment: NCI-60 five-dose assay; details: SNB-19 (CNS Cancer), 48 h; for GI50 / CC50: Homo sapiens; for GI50: read-out: GI50 Conc. per Cell Line; for CC50: read-out: LC50 (the source's name)
# SK-MEL-5 = experiment: NCI-60 five-dose assay; details: SK-MEL-5 (Melanoma), 48 h; for GI50 / CC50: Homo sapiens; for GI50: read-out: GI50 Conc. per Cell Line; for CC50: read-out: LC50 (the source's name)
# SF-295 = experiment: NCI-60 five-dose assay; details: SF-295 (CNS Cancer), 48 h; for GI50 / CC50: Homo sapiens; for GI50: read-out: GI50 Conc. per Cell Line; for CC50: read-out: LC50 (the source's name)
# RPMI-8226 = experiment: NCI-60 five-dose assay; details: RPMI-8226 (Leukemia), 48 h; for GI50 / CC50: Homo sapiens; for GI50: read-out: GI50 Conc. per Cell Line; for CC50: read-out: LC50 (the source's name)
# HL-60(TB) = experiment: NCI-60 five-dose assay; details: HL-60(TB) (Leukemia), 48 h; for GI50 / CC50: Homo sapiens; for GI50: read-out: GI50 Conc. per Cell Line; for CC50: read-out: LC50 (the source's name)
# HCT-116 = experiment: NCI-60 five-dose assay; details: HCT-116 (Colon Cancer), 48 h; for GI50 / CC50: Homo sapiens; for GI50: read-out: GI50 Conc. per Cell Line; for CC50: read-out: LC50 (the source's name)
# SN12C = experiment: NCI-60 five-dose assay; details: SN12C (Renal Cancer), 48 h; for GI50 / CC50: Homo sapiens; for GI50: read-out: GI50 Conc. per Cell Line; for CC50: read-out: LC50 (the source's name)
# SR = experiment: NCI-60 five-dose assay; details: SR (Leukemia), 48 h; for GI50 / CC50: Homo sapiens; for GI50: read-out: GI50 Conc. per Cell Line; for CC50: read-out: LC50 (the source's name)
# KM12 = experiment: NCI-60 five-dose assay; details: KM12 (Colon Cancer), 48 h; for GI50 / CC50: Homo sapiens; for GI50: read-out: GI50 Conc. per Cell Line; for CC50: read-out: LC50 (the source's name)
# Leukemia subpanel = experiment: NCI-60 five-dose assay, subpanel; details: for GI50: Homo sapiens, Leukemia, average sensitivity of all subpanel cell lines, read-out: GI50 Subpanel MID b
# OVCAR-4 = experiment: NCI-60 five-dose assay; details: OVCAR-4 (Ovarian Cancer), 48 h; for GI50 / CC50: Homo sapiens; for GI50: read-out: GI50 Conc. per Cell Line; for CC50: read-out: LC50 (the source's name)
# CCRF-CEM = experiment: NCI-60 five-dose assay; details: CCRF-CEM (Leukemia), 48 h; for GI50 / CC50: Homo sapiens; for GI50: read-out: GI50 Conc. per Cell Line; for CC50: read-out: LC50 (the source's name)
# HS 578T = experiment: NCI-60 five-dose assay; details: HS 578T (Breast Cancer), 48 h; for GI50 / CC50: Homo sapiens; for GI50: read-out: GI50 Conc. per Cell Line; for CC50: read-out: LC50 (the source's name)
# A549/ATCC = experiment: NCI-60 five-dose assay; details: A549/ATCC (Non-Small Cell Lung Cancer), 48 h; for GI50 / CC50: Homo sapiens; for GI50: read-out: GI50 Conc. per Cell Line; for CC50: read-out: LC50 (the source's name)
# DU-145 = experiment: NCI-60 five-dose assay; details: DU-145 (Prostate Cancer), 48 h; for GI50 / CC50: Homo sapiens; for GI50: read-out: GI50 Conc. per Cell Line; for CC50: read-out: LC50 (the source's name)
# T-47D = experiment: NCI-60 five-dose assay; details: T-47D (Breast Cancer), 48 h; for GI50 / CC50: Homo sapiens, T47D; for GI50: read-out: GI50 Conc. per Cell Line; for CC50: read-out: LC50 (the source's name)
# UACC-257 = experiment: NCI-60 five-dose assay; details: UACC-257 (Melanoma), 48 h; for GI50 / CC50: Homo sapiens; for GI50: read-out: GI50 Conc. per Cell Line; for CC50: read-out: LC50 (the source's name)
# SNB-75 = experiment: NCI-60 five-dose assay; details: SNB-75 (CNS Cancer), 48 h; for GI50 / CC50: Homo sapiens; for GI50: read-out: GI50 Conc. per Cell Line; for CC50: read-out: LC50 (the source's name)
smiles,measurement,setting,value
"O=C(NN=Cc1ccc([N+](=O)[O-])cc1)c1ccc2[nH]c(-c3ccc(Cl)cc3)nc2c1 [Compound 4c, N′-(4-Nitrobenzylidene)-2-(4-chlorophenyl)-1H-benzimidazole-5-carbohydrazide]",TGI,HCC-2998,4.81 µM
same,GI50,HCC-2998,1.48 µM
same,CC50,HCC-2998,28.1 µM
same,GI50,Prostate Cancer subpanel,2.2 µM
same,GI50 Selectivity Ratio (MID a/MID b),Prostate Cancer subpanel,1.49
same,GI50,SNB-19,7.48 µM
same,CC50,SNB-19,> 100 µM
same,TGI,SNB-19,32.40 µM
same,GI50,SK-MEL-5,2.11 µM
same,CC50,SK-MEL-5,12.8 µM
same,TGI,SK-MEL-5,4.78 µM
same,GI50,SF-295,3.4 µM
same,CC50,SF-295,43.8 µM
same,TGI,SF-295,13.10 µM
same,GI50,RPMI-8226,0.461 µM
same,CC50,RPMI-8226,> 100 µM
same,TGI,RPMI-8226,2.41 µM
same,TGI,HL-60(TB),5.73 µM
same,GI50,HL-60(TB),0.797 µM
same,CC50,HL-60(TB),> 100 µM
same,TGI,HCT-116,6.90 µM
same,GI50,HCT-116,2.25 µM
same,CC50,HCT-116,82.3 µM
same,GI50,SN12C,3.14 µM
same,CC50,SN12C,> 100 µM
same,TGI,SN12C,18.10 µM
same,GI50,SR,0.566 µM
same,CC50,SR,> 100 µM
same,TGI,SR,4.87 µM
same,GI50,KM12,3.43 µM
same,CC50,KM12,82.6 µM
same,TGI,KM12,13.00 µM
same,GI50,Leukemia subpanel,0.55 µM
same,GI50,OVCAR-4,2.75 µM
same,CC50,OVCAR-4,> 100 µM
same,TGI,OVCAR-4,8.64 µM
same,TGI,CCRF-CEM,17.70 µM
same,GI50,CCRF-CEM,0.591 µM
same,CC50,CCRF-CEM,> 100 µM
same,TGI,HS 578T,24.40 µM
same,GI50,HS 578T,3.58 µM
same,CC50,HS 578T,> 100 µM
same,TGI,A549/ATCC,24.10 µM
same,GI50,A549/ATCC,3.98 µM
same,CC50,A549/ATCC,> 100 µM
same,TGI,DU-145,21.40 µM
same,GI50,DU-145,3.99 µM
same,CC50,DU-145,> 100 µM
same,GI50,T-47D,2.29 µM
same,CC50,T-47D,> 100 µM
same,TGI,T-47D,7.21 µM
same,GI50,UACC-257,3.37 µM
same,CC50,UACC-257,> 100 µM
same,TGI,UACC-257,15.40 µM
same,GI50,SNB-75,2.78 µM
same,CC50,SNB-75,> 100 µM
same,TGI,SNB-75,18.00 µM
"O=C(NN=Cc1ccc(Cl)cc1)c1ccc2[nH]c(-c3ccc(Cl)cc3)nc2c1 [Compound 4e, N′-(4-Chlorobenzylidene)-2-(4-chlorophenyl)-1H-benzimidazole-5-carbohydrazide]",TGI,HCC-2998,3.44 µM
same,GI50,HCC-2998,1.82 µM
same,CC50,HCC-2998,6.5 µM
same,GI50,Prostate Cancer subpanel,1.65 µM
same,GI50 Selectivity Ratio (MID a/MID b),Prostate Cancer subpanel,1.08
same,GI50,SNB-19,2.34 µM
same,CC50,SNB-19,13.3 µM
same,TGI,SNB-19,5.06 µM
same,GI50,SK-MEL-5,1.81 µM
same,CC50,SK-MEL-5,6.33 µM
same,TGI,SK-MEL-5,3.39 µM
same,GI50,SF-295,1.86 µM
same,CC50,SF-295,6.56 µM
same,TGI,SF-295,3.50 µM
same,GI50,RPMI-8226,1.16 µM
same,CC50,RPMI-8226,16.5 µM
same,TGI,RPMI-8226,3.52 µM
same,TGI,HL-60(TB),6.53 µM
same,GI50,HL-60(TB),1.85 µM
same,CC50,HL-60(TB),54.8 µM
same,TGI,HCT-116,3.51 µM
same,GI50,HCT-116,1.45 µM
same,CC50,HCT-116,8.52 µM
same,GI50,SN12C,1.96 µM
same,CC50,SN12C,9.26 µM
same,TGI,SN12C,4.26 µM
same,GI50,SR,1.01 µM
same,CC50,SR,37 µM
same,TGI,SR,3.95 µM
same,GI50,KM12,2.03 µM
same,CC50,KM12,9.8 µM
same,TGI,KM12,4.46 µM
same,GI50,Leukemia subpanel,1.33 µM
same,GI50 Selectivity Ratio (MID a/MID b),Leukemia subpanel; Leukemia subpanel,1.35
same,GI50,OVCAR-4,1.74 µM
same,CC50,OVCAR-4,6.23 µM
same,TGI,OVCAR-4,3.29 µM
same,TGI,CCRF-CEM,9.03 µM
same,GI50,CCRF-CEM,1.43 µM
same,CC50,CCRF-CEM,65.8 µM
same,TGI,HS 578T,5.27 µM
same,GI50,HS 578T,2.28 µM
same,CC50,HS 578T,63.2 µM
same,TGI,A549/ATCC,4.53 µM
same,GI50,A549/ATCC,2.16 µM
same,CC50,A549/ATCC,9.52 µM
same,TGI,DU-145,3.44 µM
same,GI50,DU-145,1.76 µM
same,CC50,DU-145,6.7 µM
same,GI50,T-47D,1.79 µM
same,CC50,T-47D,8.21 µM
same,TGI,T-47D,3.83 µM
same,GI50,UACC-257,2.14 µM
same,CC50,UACC-257,11.6 µM
same,TGI,UACC-257,4.72 µM
same,GI50,SNB-75,1.59 µM
same,CC50,SNB-75,8.22 µM
same,TGI,SNB-75,3.62 µM
